Measured values: patent US20180273528A1 (LES LABORATOIRES SERVIER, priority 2015, published 2018)

Columns and labels:
[1] = target: T1, DYRK1A (Homo sapiens, UniProt Q13627); experiment: Kinase TR-FRET assay, DYRK1A; type: biochemical; set-up: full-length, wild-type human DYRK1A (NM_001396) with an HA tag; expressed in transfected cells; host or cells: human U2-OS osteosarcoma cells, transient transfection of a pcDNA3.1 plasmid; conditions: full-length human kinase, 10 μM ATP
Procedure, shortened: (§1)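 Compounds tested at 0.1 nM to 30 μM in reaction buffer; reaction stopped with 10 mM EDTA. Phosphorylated MBP detected with 1 nM Europium-labelled anti-phospho-Thr232 antibody by TR-FRET.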

[2] = target: T2, His-TEV-DYRK1A Kinase domain (aa127-485) (Homo sapiens, UniProt Q13627); experiment: Kinase ADP assay (ADP Hunter), DYRK1A kinase domain; type: biochemical; conditions: 20 μM ATP
T2 construct: His-TEV-DYRK1A Kinase domain (aa127-485); His tag (N); TEV protease cleavage site (N)
Procedure, shortened: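 Readout is ADP Hunter fluorescence at 590 nm, developed 20 min at 30 °C after the kinase step. That step ran 10 min at 30 °C in Hepes pH 7.4 (10 mM MgCl2, 1 mM EGTA, 0.02% Tween20) containing 20 μM ATP, 40 μM peptide and 20 nM enzyme plus compound.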

[3] = target: T3, DYRK1B (Homo sapiens, UniProt Q9Y463); experiment: Kinase TR-FRET assay, DYRK1B; type: biochemical; conditions: full-length human kinase, 10 μM ATP
T3 construct: full-length human kinases from Carna Biosciences; purchased Carna Biosciences 04-131
Procedure, shortened: as §1

[4] = target: T4, CDK9 (Homo sapiens, UniProt P50750); experiment: Kinase TR-FRET assay, CDK9; type: biochemical; conditions: full-length human kinase, 10 μM ATP
T4 construct: full-length human kinases from Carna Biosciences; purchased Carna Biosciences 04-110
Procedure, shortened: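 Full-length human CDK9 (0.9 ng/μl) incubated 100 min at room temperature with 10 μM ATP, 100 nM ULight-MBP peptide and compound (0.1 nM–30 μM) in 50 mM HEPES pH 7.4, 1 mM EGTA, 10 mM MgCl2, 2 mM DTT, 0.01% Tween20. Stopped with 10 mM EDTA, then 1 nM Eu-anti-phospho-Thr232 MBP antibody added for 1 h. TR-FRET read at 665/620 nm with 340 nm excitation.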

[5] = target: T5, CLK1 (Homo sapiens, UniProt P49759); experiment: Kinase TR-FRET assay, CLK1; type: biochemical; conditions: full-length human kinase, 10 μM ATP
T5 construct: full-length human kinases from Carna Biosciences; purchased Carna Biosciences 04-126
Procedure, shortened: as §1

[6] = target: T1, DYRK1A; experiment: Pharmacodynamic assay in RS4;11 tumor xenografts for inhibition of DYRK1A autophosphorylation; type: in vivo; set-up: tumors were excised and proteins were extracted in tissue lysis buffer; from tissue; host or cells: RS4;11 human leukemia xenograft tumors grown in female SCID mice; conditions: mouse, single oral administration, 2 h, RS4;11 tumors in SCID mice, read-out: phospho-Ser520-DYRK1A (% control at 2 h)
Procedure: For pharmacodynamics studies of inhibition of DYRK1A autophosphorylation, female SCID mice were injected subcutaneously with RS4; 11 human acute lymphoblastic leukemia cells. When tumors reached a size of 200-300 mm^3, mice were randomized into homogeneous groups of 3 and given a single oral administration of the compounds of the invention at doses of up to 100 mg/kg. […] The relative levels of phospho-Ser520-DYRK1A were assayed using western blotting. For this, lysates were diluted into Laemmli sample buffer (Bio-Rad) containing 5% v/v β-mercaptoethanol, heated for 5 min at 95° C., and resolved on Tris-glycine gels or NuPage Bis-Tris gels (Novex; Invitrogen). Biotinylated molecular weight standards (Cell Signaling Technology) were included in all gels. Proteins were transferred to nitrocellulose membranes (Hybond, ECL; Amersham), which were blocked in Tris-buffered saline/0.1% tween 20 (TBST) containing 5% milk, and probed at 4° C. overnight with anti-phospho-Ser520-DYRK1A antibody (Eurogentec SE6974-75; 0.23 μg/ml in 5% BSA) or anti DYRK1A antibody (Abnova H00001859; 0.5 μg/ml in 5% milk). Peroxidase-conjugated secondary antibodies were diluted into 5% milk and applied to membranes for 1 h at 20° C. Chemiluminescence detection was performed using the ECL plus western blotting detection kit (Amersham) and was recorded on ECL plus hyperfilm (Amersham). Blots were scanned using the Bio-Rad GS-800 calibrated densitometer and quantitative analysis of western blots was performed using TotalLab software (Amersham). The percentage inhibition of phospho-Ser520-DYRK1A as compared to the control tumors was calculated using the ratio between phospho-Ser520-DYRK1A and total DYRK1A signals at each dose.

T3 sequence (Q9Y463 whole entry): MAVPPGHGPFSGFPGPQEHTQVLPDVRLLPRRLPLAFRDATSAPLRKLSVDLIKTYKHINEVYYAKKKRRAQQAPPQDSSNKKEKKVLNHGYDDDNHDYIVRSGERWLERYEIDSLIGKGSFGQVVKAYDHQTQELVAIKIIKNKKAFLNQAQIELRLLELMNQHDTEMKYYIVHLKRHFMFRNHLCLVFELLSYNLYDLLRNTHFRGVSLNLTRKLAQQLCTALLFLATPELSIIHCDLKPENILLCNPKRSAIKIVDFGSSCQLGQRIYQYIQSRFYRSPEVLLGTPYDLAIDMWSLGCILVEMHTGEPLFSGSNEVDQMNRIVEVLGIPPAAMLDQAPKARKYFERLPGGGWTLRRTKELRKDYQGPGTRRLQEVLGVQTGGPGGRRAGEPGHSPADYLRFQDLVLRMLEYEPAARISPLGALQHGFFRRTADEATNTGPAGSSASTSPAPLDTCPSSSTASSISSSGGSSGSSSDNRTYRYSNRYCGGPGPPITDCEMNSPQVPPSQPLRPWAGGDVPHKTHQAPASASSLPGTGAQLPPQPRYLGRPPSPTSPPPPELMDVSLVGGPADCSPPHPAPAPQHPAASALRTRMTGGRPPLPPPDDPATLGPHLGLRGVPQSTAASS
T5 sequence (P49759 1-526 isoform P49759-3): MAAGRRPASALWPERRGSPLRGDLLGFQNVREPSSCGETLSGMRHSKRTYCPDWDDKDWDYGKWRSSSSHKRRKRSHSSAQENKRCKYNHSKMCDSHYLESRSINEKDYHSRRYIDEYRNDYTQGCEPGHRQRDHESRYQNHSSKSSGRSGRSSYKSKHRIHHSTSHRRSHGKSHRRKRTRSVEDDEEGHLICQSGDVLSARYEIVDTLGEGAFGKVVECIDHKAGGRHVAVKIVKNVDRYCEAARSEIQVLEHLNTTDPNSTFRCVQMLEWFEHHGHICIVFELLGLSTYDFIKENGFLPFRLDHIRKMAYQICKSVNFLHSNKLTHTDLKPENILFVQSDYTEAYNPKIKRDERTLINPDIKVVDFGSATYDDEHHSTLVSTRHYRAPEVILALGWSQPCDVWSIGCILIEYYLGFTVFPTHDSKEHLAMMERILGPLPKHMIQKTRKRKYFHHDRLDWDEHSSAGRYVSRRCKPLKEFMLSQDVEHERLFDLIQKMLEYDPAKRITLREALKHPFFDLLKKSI
T4 sequence (P50750 whole entry): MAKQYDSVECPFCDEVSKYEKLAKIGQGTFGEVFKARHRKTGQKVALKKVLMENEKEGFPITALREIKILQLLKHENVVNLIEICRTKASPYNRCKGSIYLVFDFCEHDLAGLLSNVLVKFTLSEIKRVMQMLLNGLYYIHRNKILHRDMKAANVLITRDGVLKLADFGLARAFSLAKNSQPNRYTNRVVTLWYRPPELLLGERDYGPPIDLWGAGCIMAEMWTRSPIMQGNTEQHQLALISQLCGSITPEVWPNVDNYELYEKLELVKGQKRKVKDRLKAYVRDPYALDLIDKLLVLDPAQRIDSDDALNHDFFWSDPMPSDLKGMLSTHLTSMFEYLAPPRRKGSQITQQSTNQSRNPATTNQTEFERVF
T4 sequence (O60563 whole entry partner): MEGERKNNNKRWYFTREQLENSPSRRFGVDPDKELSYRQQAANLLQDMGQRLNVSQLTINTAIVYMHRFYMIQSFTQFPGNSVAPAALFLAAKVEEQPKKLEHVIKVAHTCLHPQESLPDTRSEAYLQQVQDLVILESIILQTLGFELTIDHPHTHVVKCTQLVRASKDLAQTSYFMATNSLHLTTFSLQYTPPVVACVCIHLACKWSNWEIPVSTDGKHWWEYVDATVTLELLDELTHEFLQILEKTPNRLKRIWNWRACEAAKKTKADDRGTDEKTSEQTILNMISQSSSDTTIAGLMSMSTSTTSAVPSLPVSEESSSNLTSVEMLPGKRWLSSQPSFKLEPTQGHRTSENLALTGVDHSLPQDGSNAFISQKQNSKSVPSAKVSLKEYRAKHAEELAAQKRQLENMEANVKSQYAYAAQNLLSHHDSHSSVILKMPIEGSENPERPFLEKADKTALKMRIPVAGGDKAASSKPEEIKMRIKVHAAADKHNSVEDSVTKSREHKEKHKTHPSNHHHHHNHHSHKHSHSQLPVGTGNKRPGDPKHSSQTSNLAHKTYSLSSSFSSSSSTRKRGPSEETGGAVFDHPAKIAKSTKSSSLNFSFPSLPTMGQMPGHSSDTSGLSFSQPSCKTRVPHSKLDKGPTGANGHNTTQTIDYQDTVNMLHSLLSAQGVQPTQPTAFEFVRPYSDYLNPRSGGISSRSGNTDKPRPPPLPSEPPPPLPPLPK

Structure (SMILES)	IC50 [1]	IC50 [2]	IC50 [3]	IC50 [4]	IC50 [5]	response vs control in vivo at 9 mg/kg ([6]; dose 9 mg/kg)	response vs control in vivo at 3 mg/kg [6]
Cc1nc2ccc(-c3cc(N)nc(N)c3)nc2n1C[C@@H](C)Oc1ccccc1 (single isomer, unassigned) [Example 106]	0.008 µM	0.012 µM	0.006 µM	> 3 µM	0.019 µM	46%	–
Cc1nc2ccc(-c3cc(N)nc(N)c3)nc2n1C1CC1 [Example 9, 4-(3-cyclopropyl-2-methyl-3H-imidazo[4,5-b]pyridin-5-yl)pyridine-2,6-diamine]	0.011 µM	0.007 µM	0.006 µM	2.15 µM	0.021 µM	–	44%
Cc1nc2ccc(-c3cc(N)nc(N)c3)nc2n1Cc1ccoc1 [Example 42, 4-[3-(furan-3-ylmethyl)-2-methyl-3H-imidazo[4,5-b]pyridin-5-yl]pyridine-2,6-diamine]	0.012 µM	0.008 µM	0.01 µM	2.94 µM	0.053 µM	–	35%
Cc1nc2ccc(-c3cc(N)nc(N)c3)nc2n1CCCC(F)(F)F [Example 71, 4-[2-methyl-3-(4,4,4-trifluorobutyl)-3H-imidazo[4,5-b]pyridin-5-yl]pyridine-2,6-diamine]	0.006 µM	0.006 µM	0.006 µM	1.41 µM	0.016 µM	–	33%
Cc1nc2ccc(-c3cc(N)nc(N)c3)nc2n1C1CC(F)(F)C1 [Example 101, 4-[3-(3,3-difluorocyclobutyl)-2-methyl-3H-imidazo[4,5-b]pyridin-5-yl]pyridine-2,6-diamine]	0.003 µM	0.006 µM	0.007 µM	1.26 µM	0.016 µM	–	25%
Cc1nc2ccc(-c3cc(N)nc(N)c3)nc2n1C1CC(F)C1 (stereo not drawn) [Example 103, 4-[3-(3-fluorocyclobutyl)-2-methyl-3H-imidazo[4,5-b]pyridin-5-yl]pyridine-2,6-diamine]	0.006 µM	0.006 µM	0.005 µM	0.666 µM	0.015 µM	–	41%
CCn1c(C)nc2ccc(-c3cc(N)nc(N)c3)nc21 [Example 154, 4-(3-ethyl-2-methyl-3H-imidazo[4,5-b]pyridin-5-yl)pyridine-2,6-diamine]	0.004 µM	0.007 µM	0.002 µM	3.39 µM	0.023 µM	–	28%
